In patent US20250326765A1, “PDE4B INHIBITOR AND USE THEREOF” (XIZANG HAISCO PHARMACEUTICAL CO., LTD., priority 2022, published 2025):
Where two headings read alike, the source gives them in different places.

Legend:
PDE4B2 = target: T1, PDE4B2 (Homo sapiens, UniProt Q07343); experiment: Effect of compounds on PDE4B2 activity (fluorescence polarization kit); type: biochemical
T1 construct: purchased BPS Bioscience 60343
Procedure: The effect of compounds on PDE4B2 activity was detected by a fluorescence polarization kit (BPS Bioscience, Catalog #60343). According to the instructions of the kit, FAM-Cyclic-3′,5′-AMP at a final concentration of […], 1 ng/well of PDE4B2 (PDE buffer was added to the negative control well), and a compound diluted in a gradient manner (PDE buffer containing 10% DMSO was added to the positive control well) were added to each well, fully mixed, and then reacted at room temperature for 1 h. The Binding Agent was diluted with the Binding Agent Diluent (cAMP) at a ratio of 1:100 for later use, the Binding Agent dilution was taken and added to the test plate at 50 μl/well and incubated at room temperature with slow shaking for 20 minutes. After the incubation was complete, Envision was used for FP detection, with Excitation at 480 nm and Emission at 535 nm. FP was usually represented by mP value.
[formula] • I∥ (S535): fluorescence intensity in parallel direction • I⊥ (P535): fluorescence intensity in perpendicular direction • G: G factor=1
(§1) [formula] • mP(sample): mP of the test compound in a reaction well • mP(negative control): mP in the negative control well • mP(positive control): mP in the positive control well
(§2) According to the calculated inhibition rate at each concentration, the IC50 value of each compound was calculated by GraphPad Prism 8 software.

PDE4D2 = target: T2, PDE4D2 (Homo sapiens, UniProt Q08499); experiment: Effect of compounds on PDE4D2 activity (fluorescence polarization kit); type: biochemical; conditions: class symbols
T2 construct: purchased BPS Bioscience 60345
Procedure: The effect of compounds on PDE4D2 activity was detected by a fluorescence polarization kit (BPS Bioscience, Catalog #60345). During the reaction, 12.5 μL of 0.272 ng/well of an enzyme (final concentration: 0.068 ng/well) and 12.5 μL of the compound diluted in a gradient manner (DMSO concentration: 4%) were first pre-incubated at room temperature for 15 minutes, the same volume of the enzyme at the same concentration and 12.5 μL of PDE buffer containing 4% DMSO were added to the positive control well, and 25 μL of PDE buffer containing 2% DMSO was added to the negative control well. After completion, 25 μL of […] FAM-Cyclic-3′,5′-AMP (final concentration: […]) was added to each well, fully mixed, and then incubated at room temperature with slow shaking for 30 minutes. The Binding Agent was diluted with the Binding Agent Diluent (cAMP) at a ratio of 1:100 for later use, 100 μl/well of the Binding Agent dilution was taken and added to all wells of the test plate and incubated at room temperature with slow shaking for 1 hour.
After the incubation was complete, BMG LRBTECH microplate reader was used for FP detection, with Excitation at 485 nm and Emission at 520 nm. FP was usually represented by mP value.
[formula] • I∥ (S520): fluorescence intensity in parallel direction • I⊥ (P520): fluorescence intensity in perpendicular direction • G: G factor=1
as §1, §2

[1] = Inhibition of LPS-induced TNF-α release from human peripheral blood mononuclear cells in vitro; type: cell-based; conditions: PBMC, hPBMC, 100 ng/mL LPS, 4 h; for IC50: class symbols, read-out: Re IC50 (nM) (relative IC50), TNF-α induced by LPS; for Emax: read-out: Max inhibition (%)
Procedure: Normal human peripheral blood which was anticoagulated (citric acid anticoagulation) was collected, and hPBMCs were prepared by Ficoll-Paque PLUS (Cytiva, Cat #17144002, density 1.077 g/mL). The concentration of hPBMC cells was adjusted to 0.25×10^6 cells/mL with RPMI1640 medium and inoculated into a 96-well plate in an amount of 50000 cells per well. Subsequently, different concentrations of drugs were added for pre-incubation for 1 h (the DMSO final concentration was 0.1%, and the positive and negative control wells had the same volume of RPMI1640 containing 0.1% DMSO). After the pre-incubation was complete, 100 ng/mL LPS (SIGMA, L2630) was added to the compound and positive control wells, and the negative control well had the same volume of RPMI1640 containing 0.1% DMSO. Incubation was carried out for 4 h in an incubator at 37° C. and 5% CO2. The cell supernatant was collected, and the content of TNF-α in the supernatant sample was detected by human TNF-α Elisa quantitative test kit (Sino Biological, Cat #KIT10602). The IC50 value was calculated using GraphPad Prism software.

[2] = Pharmacokinetic test in mice; type: in vivo, ICR mice
Procedure: 5.1 Experimental animals: Male ICR mice, 20-25 g, 6 mice/compound. Purchased from Chengdu Ddossy Experimental Animals Co., Ltd.
5.2 Experimental design: On the day of the experiment, 42 ICR mice were randomly grouped according to their body weights. The animals were fasted with water available for 12-14 h one day before administration and fed 4 h after administration.
Before and after administration, 0.06 mL of blood was taken from the orbit under isoflurane anesthesia and placed in an EDTAK2 centrifuge tube for centrifugation at 5000 rpm at 4-C for 10 min, followed by plasma collection. The blood collection time points for the intravenous group and intragastric group were both 0 m, 5 mi, 15 mi, 30 mi, 1 h, 2 h, 4 h, 6 h, 8 h, and 24 h. Before analysis and detection, all the samples were stored at −80° C., and the samples were subjected to quantitative analysis using LC-MS/MS.

[3] = class symbols, read-out: PDE4B2 IC50
[4] = male, ICR, mouse, iv, plasma, i.v. (5 mg/kg)
[5] = male, ICR, mouse, po, plasma, i.g. (10 mg/kg)

T1 sequence (Q07343 1-564 isoform Q07343-2): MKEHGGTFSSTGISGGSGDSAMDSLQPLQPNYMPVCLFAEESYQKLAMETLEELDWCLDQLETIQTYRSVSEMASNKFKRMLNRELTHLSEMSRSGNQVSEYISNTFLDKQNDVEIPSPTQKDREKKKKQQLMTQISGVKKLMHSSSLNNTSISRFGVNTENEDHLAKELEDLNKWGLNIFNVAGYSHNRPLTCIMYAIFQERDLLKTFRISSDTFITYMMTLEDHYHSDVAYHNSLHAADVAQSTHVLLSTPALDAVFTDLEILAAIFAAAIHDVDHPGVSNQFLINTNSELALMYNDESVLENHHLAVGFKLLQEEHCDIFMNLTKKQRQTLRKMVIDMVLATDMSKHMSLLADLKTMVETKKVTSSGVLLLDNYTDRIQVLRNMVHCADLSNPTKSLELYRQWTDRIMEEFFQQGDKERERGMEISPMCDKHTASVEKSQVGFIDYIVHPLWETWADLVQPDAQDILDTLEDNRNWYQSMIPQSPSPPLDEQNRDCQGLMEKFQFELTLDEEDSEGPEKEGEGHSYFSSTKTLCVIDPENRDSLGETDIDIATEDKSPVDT
T2 sequence (Q08499 303-809): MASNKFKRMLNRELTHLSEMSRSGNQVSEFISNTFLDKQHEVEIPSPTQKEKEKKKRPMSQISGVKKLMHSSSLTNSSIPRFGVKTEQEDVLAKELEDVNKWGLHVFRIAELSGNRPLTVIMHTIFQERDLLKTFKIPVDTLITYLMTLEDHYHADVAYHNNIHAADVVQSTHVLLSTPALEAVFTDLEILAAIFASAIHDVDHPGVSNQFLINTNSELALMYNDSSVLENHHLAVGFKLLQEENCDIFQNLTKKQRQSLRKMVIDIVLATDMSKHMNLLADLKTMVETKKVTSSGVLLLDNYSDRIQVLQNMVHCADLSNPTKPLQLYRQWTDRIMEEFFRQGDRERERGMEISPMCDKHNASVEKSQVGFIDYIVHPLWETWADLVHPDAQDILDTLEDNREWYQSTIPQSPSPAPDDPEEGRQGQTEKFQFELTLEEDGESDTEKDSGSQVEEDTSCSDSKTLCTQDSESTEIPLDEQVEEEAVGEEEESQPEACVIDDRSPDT

| IC50 (PDE4B2; [3]) | IC50 (PDE4D2) | IC50 [1] | SMILES | Emax [1] | also measured |
| --- | --- | --- | --- | --- | --- |
| < 10 nM | < 10 nM | 10 to 50 nM | N#Cc1ccc2c(c1)OCC1CN(c3nc4c(c(NC5(CO)CCC5)n3)[S+]([O-])CC4)CCN21 (single isomer, unassigned) [Compound 74-1] | 72.4% |  |
| 10 to 50 nM |  | < 10 nM | CC(=O)N1CCN2c3ccc(-c4nc5c(c(NC6(CO)CCC6)n4)[S+]([O-])CC5)cc3OCC2C1 (single isomer, unassigned) [Compound 78-1] | 61.2% |  |
| < 10 nM | < 10 nM |  | CC1CN(c2ccc3c(c2)OCC2CN(c4nc5c(c(NC6(CO)CCC6)n4)[S@+]([O-])CC5)CCN32)C1 (single isomer, unassigned) [Compound 81-2] |  |  |
| < 10 nM | < 10 nM |  | [O-][S@+]1CCc2nc(N3CC=C(c4ccc(Cl)cc4)CC3)nc(NC3(CO)CCC3)c21 [Compound 1] |  | F ([2]; i.g. (10 mg/kg)): 76.2 ± 4.7%; AUC(0-t) [2, 4]: 8660 ± 759 ng·h/mL; clearance [2, 4]: 4.55 ± 0.46 mL/min/kg; half-life [2, 4]: 6.17 ± 0.71 h; Vd ([2]; male, ICR, mouse, iv, plasma, i.v. (5 mg/kg), read-out: Vdss): 2.07 ± 0.2 L/kg; AUC(0-t) [2, 5]: 26400 ± 1640 ng·h/mL; half-life [2, 5]: 15.7 ± 4.1 h; IC50 (PDE4B2; values in text, read-out: IC50 against PDE4B2): 2.45 nM |
| 10 to 50 nM | 10 to 50 nM |  | [O-][S@+]1CCc2nc(N3CC=C(c4ccc(Cl)cc4)CCC3)nc(NC3(CO)CCC3)c21 [Compound 4] |  |  |
| 10 to 50 nM | < 10 nM |  | [O-][S@+]1CCc2nc(N3C[C@H]4CN(c5ccc(Cl)cc5)C[C@H]4C3)nc(NC3(CO)CCC3)c21 [Compound 6] |  |  |
| 10 to 50 nM | 10 to 50 nM |  | [O-][S@+]1CCc2nc(N3CCC(c4ccc5c(c4)CC5)CC3)nc(NC3(CO)CCC3)c21 [Compound 8] |  |  |
|  | 10 to 50 nM |  | [O-][S@+]1CCc2nc(N3CCC(c4ccc5c(c4)CCC5)CC3)nc(NC3(CO)CCC3)c21 [Compound 9] |  |  |
| 10 to 50 nM | 10 to 50 nM |  | [O-][S@+]1CCc2nc(N3CC4(CC(c5ccc(Cl)cc5)C4)C3)nc(NC3(CO)CCC3)c21 [Compound 10] |  |  |
|  | < 10 nM |  | [O-][S+]1CCc2nc(N3CCC4=C(CCc5cc(Cl)ccc54)C3)nc(NC3(CO)CCC3)c21 (stereo not shown) [Compound 30] |  |  |
|  | 10 to 50 nM |  | [O-][S@+]1CCc2nc(C3=CCN(c4ncc(Cl)cn4)CC3)nc(NC3(CO)CCC3)c21 [Compound 32] |  |  |
| < 10 nM | 10 to 50 nM |  | [O-][S@+]1CCc2nc(N3CCC(c4ccc(Cl)cc4)=C(F)C3)nc(NC3(CO)CCC3)c21 [Compound 43] |  |  |
| 10 to 50 nM | 10 to 50 nM |  | N#Cc1cnc(C2=CCN(c3nc4c(c(NC5(CO)CCC5)n3)[S@+]([O-])CC4)CC2)nc1 [Compound 50] |  |  |
| < 10 nM | 10 to 50 nM |  | [O-][S@+]1CCc2nc(N3CC=C(c4cccc(S(F)(F)(F)(F)F)c4)CC3)nc(NC3(CO)CCC3)c21 [Compound 51] |  |  |
|  | 10 to 50 nM |  | [O-][S@+]1CCc2nc(N3CC=C(c4cccc(SC(F)(F)F)c4)CC3)nc(NC3(CO)CCC3)c21 [Compound 52] |  |  |
| < 10 nM | < 10 nM |  | [O-][S+]1CCc2nc(N3CC=C(c4ncc(C5CC5)cn4)CC3)nc(NC3(CO)CCC3)c21 (stereo not shown) [Compound 53] |  |  |

| IC50 (PDE4B2; [3]) | IC50 (PDE4D2) | IC50 [1] | SMILES | Emax [1] | also measured |
| --- | --- | --- | --- | --- | --- |
| < 10 nM | < 10 nM | 10 to 50 nM | Cc1nnc(C2=CCN(c3nc4c(c(NC5(CO)CCC5)n3)[S@+]([O-])CC4)CC2)o1 [Compound 55] | 67.2% |  |
| < 10 nM | < 10 nM |  | [O-][S@+]1CCc2nc(N3CC=C(c4nc5ccccc5s4)CC3)nc(NC3(CO)CCC3)c21 [Compound 56] |  |  |
| 10 to 50 nM | 10 to 50 nM |  | C#Cc1cnc(N2CCN(c3nc4c(c(NC5(CO)CCC5)n3)[S+]([O-])CC4)CC2)nc1 (stereo not shown) [Compound 57] |  |  |
| < 10 nM | < 10 nM |  | [O-][S@+]1CCc2nc(N3CC=C(c4nc5ccccc5o4)CC3)nc(NC3(CO)CCC3)c21 [Compound 58] |  |  |
| 10 to 50 nM | 10 to 50 nM |  | CP(C)(=O)c1cnc(C2=CCN(c3nc4c(c(NC5(CO)CCC5)n3)[S@+]([O-])CC4)CC2)nc1 [Compound 59] |  |  |
| 10 to 50 nM | 10 to 50 nM |  | Cc1coc(C2=CCN(c3nc4c(c(NC5(CO)CCC5)n3)[S@+]([O-])CC4)CC2)n1 [Compound 60] |  |  |
| < 10 nM | < 10 nM |  | CP(C)(=O)c1cccc(C2=CCN(c3nc4c(c(NC5(CO)CCC5)n3)[S@+]([O-])CC4)CC2)c1 [Compound 63] |  |  |
| < 10 nM | 10 to 50 nM | < 10 nM | N#CC1(c2cnc(C3=CCN(c4nc5c(c(NC6(CO)CCC6)n4)[S@+]([O-])CC5)CC3)nc2)CC1 [Compound 64] | 70.8% |  |
| < 10 nM | < 10 nM | 10 to 50 nM | [O-][S@+]1CCc2nc(N3C[C@H]4CN(c5ncc6c(n5)CC6)C[C@H]4C3)nc(NC3(CO)CCC3)c21 [Compound 65] | 82% |  |
| < 10 nM | < 10 nM | 10 to 50 nM | [O-][S@+]1CCc2nc(N3CC=C(c4ccc5c(c4)COB5O)CC3)nc(NC3(CO)CCC3)c21 [Compound 66] | 79.3% |  |
| < 10 nM | 10 to 50 nM | 50 to 100 nM | [O-][S@+]1CCc2nc(N3Cc4cc5c(cc4C3)CCC5)nc(NC3(CO)CCC3)c21 [Compound 69] | 74.4% |  |
| < 10 nM | < 10 nM | < 10 nM | C#Cc1ccc(C2=CCN(c3nc4c(c(NC5(CO)CCC5)n3)[S@+]([O-])CC4)CC2)nc1 [Compound 70] | 70.5% |  |
| 10 to 50 nM | 10 to 50 nM |  | CP(C)(=O)c1ccnc(C2=CCN(c3nc4c(c(NC5(CO)CCC5)n3)[S@+]([O-])CC4)CC2)n1 [Compound 71] |  |  |
| < 10 nM | < 10 nM | < 10 nM | CC#Cc1cnc(C2=CCN(c3nc4c(c(NC5(CO)CCC5)n3)[S@+]([O-])CC4)CC2)nc1 [Compound 76] | 73.8% |  |
| < 10 nM | 10 to 50 nM | < 10 nM | [O-][S@+]1CCc2nc(N3CC=C(c4ncc5c(n4)COB5O)CC3)nc(NC3(CO)CCC3)c21 [Compound 79] | 61.5% |  |
| < 10 nM | < 10 nM |  | CC#Cc1ccc(C2=CCN(c3nc4c(c(NC5(CO)CCC5)n3)[S@+]([O-])CC4)CC2)nc1 [Compound 82] |  |  |

| SMILES | IC50 (PDE4B2; [3]) | IC50 (PDE4D2) | IC50 [1] | Emax [1] | also measured |
| --- | --- | --- | --- | --- | --- |
| C[Si]1(C)CCN(c2cnc(C3=CCN(c4nc5c(c(NC6(CO)CCC6)n4)[S@+]([O-])CC5)CC3)nc2)CC1 [Compound 54] | < 10 nM | < 10 nM | 10 to 50 nM | 78.4% |  |
